Experiments:
Type in all cases: in vivo
[1] = system: morningglory (Ipomoea spp.); experiment: Test A preemergence, morningglory; details: 0 to 100 scale (0 no effect, 100 complete control)
Outline: (§1)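 Visual injury scored 0 (no effect) to 100 (complete control) against untreated plants roughly ten days after greenhouse treatment. Postemergence sprays hit one- to two-leaf plants 2–10 cm high; preemergence was a directed spray onto loam–sand soil, both using surfactant-containing solvent formulations.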

corn (Zea mays) = experiment: Test A preemergence, corn; details: 0 to 100 scale (0 no effect, 100 complete control)
Outline: as §1

[2] = system: large crabgrass (Digitaria sanguinalis); experiment: Test A postemergence, large crabgrass; details: 0 to 100 scale (0 no effect, 100 complete control)
Outline: as §1

rice (Oryza sativa) = experiment: Test B flooded paddy test, rice; details: Flood, scale 0 to 100
Outline: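 Rice, umbrella sedge, ducksalad and barnyardgrass at 2-leaf stage; pots flooded to 3 cm, compounds applied into paddy water, depth held throughout. Greenhouse 13 to 15 days, then visual rating vs untreated controls on 0–100 scale (0 no effect, 100 complete control); dash means no test result.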

[3] = system: winter barley (Hordeum vulgare); experiment: Test C preemergence, winter barley; details: 21 days, scale 0 to 100
Source text: (§2) Seeds of plant species selected from annual bluegrass (Poa annua), blackgrass (Alopecurus myosuroides), canarygrass (Phalaris minor), gallium, (catchweed bedstraw, Galium aparine), chickweed (Stellaria media), downy bromegrass (Bromus tectorum), field poppy (Papaver rhoeas), field violet (Viola arvensis), green foxtail (Setaria viridis), deadnettle (henbit deadnettle, Lamium amplexicaule), Italian ryegrass (Lolium multiflorum), kochia (Kochia scoparia), lambsquarters (Chenopodium album), oilseed rape (Brassica napus), pigweed (Amaranthus retroflexus), Russian thistle (Salsola kali), spring barley (Hordeum vulgare), spring wheat (Triticum aestivum), wild buckwheat (Polygonum convolvulus), wild mustard (Sinapis arvensis), wild oat (Avena fatua), wild radish (Raphanus raphanistrum), windgrass (Apera spica-venti), winter barley (Hordeum vulgare), and winter wheat (Triticum aestivum) were planted and treated preemergence with test chemicals formulated in a non-phytotoxic solvent mixture which included a surfactant.
(§3) Treated plants and controls were maintained in a controlled growth environment for 21 days after which time all species were compared to controls and visually evaluated. Plant response ratings, summarized in Table C, are based on a scale of 0 to 100 where 0 is no effect and 100 is complete control. A dash (-) response means no test result.

[4] = system: annual bluegrass (Poa annua); experiment: Test C preemergence, annual bluegrass; details: 21 days, scale 0 to 100
Source text: as §2, §3

[5] = system: chickweed (Stellaria media); experiment: Test C preemergence, chickweed; details: 21 days, scale 0 to 100
Source text: as §2, §3

[6] = system: deadnettle (henbit deadnettle, Lamium amplexicaule); experiment: Test C preemergence, deadnettle; details: 21 days, scale 0 to 100
Source text: as §2, §3

[7] = system: gallium, (catchweed bedstraw, Galium aparine); experiment: Test C preemergence, galium; details: 21 days, scale 0 to 100
Source text: as §2, §3

[8] = system: oilseed rape (Brassica napus); experiment: Test C preemergence, oilseed rape; details: 21 days, scale 0 to 100
Source text: as §2, §3

[9] = system: windgrass (Apera spica-venti); experiment: Test C preemergence, windgrass; details: 21 days, scale 0 to 100
Source text: as §2, §3

[10] = system: Russian thistle (Salsola kali); experiment: Test B preemergence, Russian thistle; details: scale 0 to 100
Source text: Seeds of plant species selected from blackgrass (Alopecurus myosuroides), downy bromegrass (Bromus tectorum), green foxtail (Setaria viridis), Italian ryegrass (Lolium multiflorum), wheat (Triticum aestivum), wild oat (Avena fatua), catchweed bedstraw (Galium aparine), bermudagrass (Cynodon dactylon), Surinam grass (Brachiaria decumbens), cocklebur (Xanthium strumarium), corn (Zea mays), large crabgrass (Digitaria sanguinalis), woolly cupgrass (Eriochloa villosa), giant foxtail (Setaria faberii), goosegrass (Eleusine indica), johnsongrass (Sorghum halepense), kochia (Kochia scoparia), lambsquarters (Chenopodium album), morningglory (Ipomoea coccinea), nightshade (eastern black nightshade, Solanum ptycanthum), yellow nutsedge (Cyperus esculentus), pigweed (Amaranthus retroflexus), ragweed (common ragweed, Ambrosia elatior), soybean (Glycine max), sunflower (common oilseed sunflower, Helianthus annuus), Russian thistle (Salsola kali), and velvetleaf (Abutilon theophrasti) were planted into a blend of loam soil and sand and treated preemergence with test compounds formulated in a non-phytotoxic solvent mixture which included a surfactant. Treated plants and controls were maintained in a greenhouse for 13 to 15 days, after which time all species were compared to controls and visually evaluated. Plant response ratings, summarized in Table B, are based on a scale of 0 to 100 where 0 is no effect and 100 is complete control. A dash (-) response means no test result.

SMILES: CC1(C)CC(S(=O)(=O)Cc2c(C(F)(F)F)nc3n(c2=O)CCS3)=NO1 [Compound 6]
- Plant response rating, Morningglory ([1]; 125 g ai/ha): 90
- Plant response rating, Morningglory ([1]; 500 g ai/ha): 100
- Plant response rating, Corn (corn (Zea mays); 125 g ai/ha): 0
- Plant response rating, Corn (corn (Zea mays); 500 g ai/ha): 0
- Plant response rating, Crabgrass, Large ([2]; 125 g ai/ha): 80
- Plant response rating, Crabgrass, Large ([2]; 500 g ai/ha): 90
- Plant response rating, Rice (rice (Oryza sativa); 62 g ai/ha): 20
- Plant response rating, Rice (rice (Oryza sativa); 250 g ai/ha): 20
- Plant response rating, Barley, Winter ([3]; 31 g ai/ha): 0
- Plant response rating, Barley, Winter ([3]; 62 g ai/ha): 0
- Plant response rating, Barley, Winter ([3]; 125 g ai/ha): 15
- Plant response rating, Barley, Winter ([3]; 250 g ai/ha): 20
- Plant response rating, Bluegrass ([4]; 31 g ai/ha): 20
- Plant response rating, Bluegrass ([4]; 62 g ai/ha): 20
- Plant response rating, Bluegrass ([4]; 125 g ai/ha): 20
- Plant response rating, Bluegrass ([4]; 250 g ai/ha): 90
- Plant response rating, Chickweed ([5]; 31 g ai/ha): 0
- Plant response rating, Chickweed ([5]; 62 g ai/ha): 0
- Plant response rating, Chickweed ([5]; 125 g ai/ha): 0
- Plant response rating, Chickweed ([5]; 250 g ai/ha): 50
- Plant response rating, Deadnettle ([6]; 31 g ai/ha): 0
- Plant response rating, Deadnettle ([6]; 62 g ai/ha): 0
- Plant response rating, Deadnettle ([6]; 125 g ai/ha): 0
- Plant response rating, Deadnettle ([6]; 250 g ai/ha): 0
- Plant response rating, Galium ([7]; 31 g ai/ha): 0
- Plant response rating, Galium ([7]; 62 g ai/ha): 0
- Plant response rating, Galium ([7]; 125 g ai/ha): 0
- Plant response rating, Galium ([7]; 250 g ai/ha): 0
- Plant response rating, Oilseed Rape ([8]; 31 g ai/ha): 0
- Plant response rating, Oilseed Rape ([8]; 62 g ai/ha): 0
- Plant response rating, Oilseed Rape ([8]; 125 g ai/ha): 0
- Plant response rating, Oilseed Rape ([8]; 250 g ai/ha): 0
- Plant response rating, Windgrass ([9]; 125 g ai/ha): 20

SMILES: CC1(C)CC(S(=O)(=O)Cc2c(C(F)(F)F)nc3n(c2=O)CCCC3)=NO1 [Compound 8, 3-[[(4,5-dihydro-5,5-dimethyl-3-isoxazolyl)sulfonyl]methyl]-6,7,8,9-tetrahydro-2-(trifluoromethyl)-4H-pyrido[1,2-α]pyrimidin-4-one]
- Plant response rating, Morningglory ([1]; 125 g ai/ha): 20
- Plant response rating, Morningglory ([1]; 500 g ai/ha): 90
- Plant response rating, Corn (corn (Zea mays); 125 g ai/ha): 0
- Plant response rating, Corn (corn (Zea mays); 500 g ai/ha): 20
- Plant response rating, Crabgrass, Large ([2]; 125 g ai/ha): 60
- Plant response rating, Crabgrass, Large ([2]; 500 g ai/ha): 90
- Plant response rating, Russian Thistle ([10]; 16 g ai/ha): 0
- Plant response rating, Russian Thistle ([10]; 31 g ai/ha): 0
- Plant response rating, Russian Thistle ([10]; 62 g ai/ha): 0
- Plant response rating, Russian Thistle ([10]; 125 g ai/ha): 0
- Plant response rating, Rice (rice (Oryza sativa); 62 g ai/ha): 0
- Plant response rating, Rice (rice (Oryza sativa); 250 g ai/ha): 0
- Plant response rating, Barley, Winter ([3]; 16 g ai/ha): 0
- Plant response rating, Barley, Winter ([3]; 31 g ai/ha): 0
- Plant response rating, Barley, Winter ([3]; 62 g ai/ha): 0
- Plant response rating, Barley, Winter ([3]; 125 g ai/ha): 0
- Plant response rating, Bluegrass ([4]; 16 g ai/ha): 0
- Plant response rating, Bluegrass ([4]; 31 g ai/ha): 0
- Plant response rating, Bluegrass ([4]; 62 g ai/ha): 0
- Plant response rating, Bluegrass ([4]; 125 g ai/ha): 0
- Plant response rating, Chickweed ([5]; 16 g ai/ha): 0
- Plant response rating, Chickweed ([5]; 31 g ai/ha): 0
- Plant response rating, Chickweed ([5]; 62 g ai/ha): 0
- Plant response rating, Chickweed ([5]; 125 g ai/ha): 40
- Plant response rating, Deadnettle ([6]; 16 g ai/ha): 0
- Plant response rating, Deadnettle ([6]; 31 g ai/ha): 0
- Plant response rating, Deadnettle ([6]; 62 g ai/ha): 0
- Plant response rating, Deadnettle ([6]; 125 g ai/ha): 0
- Plant response rating, Galium ([7]; 16 g ai/ha): 0
- Plant response rating, Galium ([7]; 31 g ai/ha): 0
- Plant response rating, Galium ([7]; 62 g ai/ha): 0
- Plant response rating, Galium ([7]; 125 g ai/ha): 0
- Plant response rating, Oilseed Rape ([8]; 16 g ai/ha): 0
- Plant response rating, Oilseed Rape ([8]; 31 g ai/ha): 0
- Plant response rating, Oilseed Rape ([8]; 62 g ai/ha): 0
- Plant response rating, Oilseed Rape ([8]; 125 g ai/ha): 0
- Plant response rating, Windgrass ([9]; 16 g ai/ha): 0
- Plant response rating, Windgrass ([9]; 31 g ai/ha): 0
- Plant response rating, Windgrass ([9]; 62 g ai/ha): 35
- Plant response rating, Windgrass ([9]; 125 g ai/ha): 90
